Square brackets hold non-standard residues; d marks the D form. Peptide text beside a SMILES is read from it.
Experiments:
[1] = test system: erythrocyte; format: cell-based
Procedure: The hemolytic activity of each peptide was measured in the way as will be described hereinafter.
Each peptide (ca. 1 mg) was dissolved in 20 (l of 100% acetic acid and diluted with phosphate buffer to reach a total amount of 5 ml. The resulting solution was measured for its absorbency (280 nm) to determine its concentration. The solution was then used for experiments in situ by dilution with phosphate buffer.
A blood sample (ca. 3 ml) was centrifuged at 2,000 rpm at 4° C. for 10 minutes and the supernatant was removed to form an erythrocyte sample. To the erythrocyte sample was added 1 ml of phosphate buffer, and the resulting solution was stirred well, followed by centrifugation in the manner as described above. These procedures were repeated three times to obtain the erythrocyte alone. Moreover, 1 ml of phosphate buffer was added to the resulting erythrocyte, and the resulting mixture was stirred well, followed by distributing it by 60 μl to microtubes and centrifuging to remove the supernatant therefrom. The resulting erythrocyte was in turn used for further experiments.
The peptide and a protein solution were then added by 1 ml to the erythrocyte sample, and the resulting solution was stirred well, followed by allowing it to stand at 25° C. for 60 minutes. Thereafter, the tubes were centrifuged to collect the supernatant only (100 μl) which was in turn measured at an absorbency of 542 nm. The supernatant was then returned to each tube and a drop of surfactant Triton® X was added to each tube, followed by stirring it well and measuring for its absorbency at 542 nm.

[2] = Wilhelmy tensiometer; Japanese Patent Publication No. 2004-305006 A1; cited from earlier work

Molecule | hemolytic activity (in words) [1] | hemolytic property [1] | surface tension-surface area curve (hysteresis curve) compared with Surfacten [2] | hemolytic activity of the peptide itself compared to peptide Hel 13-5 [1]
H-KLLKLLLKLWLKLLKLLL-OH [Hel 13-5, NH2-Lys Leu Leu Lys Leu Leu Leu Lys Leu Trp Leu Lys Leu Leu Lys Leu Leu Leu-COOH] | strong hemolytic activity | does not demonstrate a hemolytic property | equal curve to that of Surfacten® | –
CC(C)C[C@H](NC(=O)[C@H](CC(C)C)NC(=O)[C@H](CC(C)C)NC(=O)[C@H](CCCCN)NC(=O)[C@@H](CC(C)C)NC(=O)[C@H](CC(C)C)NC(=O)[C@H](CCCCN)NC(=O)[C@H](CC(C)C)NC(=O)[C@H](Cc1c[nH]c2ccccc12)NC(=O)[C@H](CC(C)C)NC(=O)[C@@H](CCCCN)NC(=O)[C@@H](CC(C)C)NC(=O)[C@H](CC(C)C)NC(=O)[C@H](CC(C)C)NC(=O)[C@H](CCCCN)NC(=O)[C@H](CC(C)C)NC(=O)[C@H](CC(C)C)NC(=O)[C@@H](N)CCCCN)C(=O)O [Hel 13-5D3, NH2-Lys Leu Leu Lys Leu Leu D-Leu D-Lys Leu Trp Leu Lys D-Leu Leu Lys Leu Leu Leu-COOH] (H-KLLKLL[dL][dK]LWLKL[dL]KLLL-OH) | – | – | – | lower by several times

— patent publication US20110195892A1, “Artifical Pulmonary Surfactant Compositions” (priority 2005, published 2011)
